Data: PMC12914960, “Repurposing a detrimental antibody epitope as targeted therapeutics for sepsis and rheumatoid arthritis” (Military Medical Research, 2026)
Where “and” joins values, the source holds several entries; their conditions need not be identical. Identical values can stand only once. Where a SMILES comes first, the peptide text is derived from it.

Experiments:
[1] = system: CAIA-induced pain sensitivity in BALB/c mice; test: Mechanical allodynia, Von Frey filaments, in CAIA mice; assay type: in vivo, mouse; parameters: key to CAIA-induced pain sensitivity (Von Frey score) / CAIA-induced pain response (Vor Frey score): 50% paw withdrawal threshold, force in g; conditions: for CAIA-induced pain response (Vor Frey score): female, effect of mAb2, P2-1
Description: Mechanical allodynia was assessed using Von Frey filaments (Stoelting Co., Wood Dale, IL, USA) applied to the plantar surface of the hind paws as previously described. The mice (n = 6–10) were habituated to individual transparent enclosures on an elevated wire mesh platform. Calibrated Von Frey filaments (0.008–2.000 g) were applied for 2–3 s or until a withdrawal response occurred. The “up-down” method determines the 50% paw withdrawal threshold, defined as the force required to elicit a withdrawal response in 50% of applications.

[2] = system: CAIA-induced joint cytokines and chemokines; test: Cytokine antibody arrays of joint tissue of CAIA mice; assay type: in vivo, mouse; parameters: VCAM1 / sTNFRI / sTNFRII / MIP-1gamma / MIP2 / P-selectin: unit not given here
Description: The levels of cytokines and chemokines in mouse serum and joint tissue lysates, or human PBMC culture supernatants, were determined via murine or human cytokine antibody arrays (e.g., Cat. #AAM-CYM-3–8 or Cat. #AAH-CYT-3–8, RayBiotech Inc., Norcross, GA, USA) as previously described. For the sepsis model, blood samples were collected from the mice (n = 4) at 24 h post-CLP. For the CAIA model, soft tissues from the hindpaw and ankle joints were carefully harvested from normal (n = 2) and CAIA (n = 4) mice using a previously established protocol. Briefly, 0.5 g of fresh soft tissue was cut into 3 mm pieces and mixed with 400 µl of a hypertonic solution (500 ml of PBS with 4.5 g of NaCl and 2 × protease inhibitor cocktail) in a 10 ml syringe. Mechanical extrusion, involving 30 rapid back-and-forth movements of the plunger, was then performed. The expelled extracellular fluid was collected, immediately aliquoted, and stored at −20 °C until analysis. Cell-conditioned medium was collected from PBMC cultures after 16 h of stimulation. Arrays were performed according to the manufacturer’s protocol, followed by chemiluminescent detection and densitometric quantification as previously described.
Fig. S5 Representative cytokine antibody arrays depicting the effect of P2- 1 on collagen antibody- induced
arthritis (CAIA)- induced joint inflammation. Representative images from cyt okine antibody arrays of j oint
tissue lysates from 4 vehicle-treated CAIA mice and 4 P2-1- treated CAIA mice (harvested on Day 10). […]

human PBMCs = test: RNA-seq of HMGB1-stimulated PBMCs; assay type: cell-based
Description: Total RNA was isolated from human PBMCs (n = 6 biological replicates) stimulated with HMGB1 in the absence or presence of P2-1 (5.0 or 10.0 µg/ml) via the RNeasy Mini Kit (Qiagen, Germantown, MD, USA) according to the manufacturer’s instructions. cDNA libraries were prepared using the TruSeq RNA Library Prep Kit v2 (Illumina, San Diego, CA, USA) and sequenced on an Illumina NovaSeq 6000 platform to generate 100 bp paired-end reads. Gene counts were quantified via StringTie and DESeq2 for differential gene expression analysis. Volcano plots and heatmaps were generated via ggplot2 and pheatmap packages in R, respectively. Genes with an adjusted P-value < 0.05 and a |log2 fold change|> 1 were considered differentially expressed. […]
custom-synthesized (Gen Script, Piscataway, NJ, USA). P2 -1 was engineered to: i) increase solubility by removing a w ater-insoluble phenylalanine (F) at the C-terminal residue 70 and introducing a water-soluble threonine (T) at N-t erminal residue 54; and ii) reduce oxidative susceptibility by substituting methionine (M) with norleucine (Nle) and cysteine (C) with serine (S), respectively. The pCTS -L-neutralizing mAbs (mAb2) and TN-neutrali zing mAbs (mAb8 and m Ab9) were generated in BALB/c and C57BL/6 m ice as previously described .
RNA sequencing (RNA- Seq) and bioinformatics analysis
Total RNA was isolated from human PBMCs (n= 6 biological replicates) stimulated with HMGB1 in the absence o r pres ence o f P2-1 (5.0 or 10.0 µg/ml) via the RNeasy Mini Kit (Qiagen, Germantown, MD, USA) according to the manufacturer ’s instructions. RNA quantity and quality were assessed via a NanoDrop spectrophotometer, which requires A260/280 and A260/230 ratios to both be > 1.8. Samples meeting these criteria were then sent to two sequencing facilities, where RNA integrity was further confirmed via an Agilent Bioanalyzer. Only samples with an RNA integrity number of 8 or above were accepted for RNA sequencing. cDNA libraries were prepared using the TruSeq RNA Library Prep Kit v2 (Illumina, San Diego, CA, USA) and sequenced on an Illumina NovaSeq 6000 platform to generat e 100 bp paired-end reads. Our data filtering criteria adhered to industry best practices to ensure data quality.
First, raw sequencing reads underwent quality assessment with FastQC, followed by adapter and low-quality nucleotide trimming using Trimmomatic v.0.36. Subsequently, the high- quality reads wer e aligned to the Homo sapiens GRCh38 reference genome using the STAR aligner v.2.5.2b. Following alignment, PCR duplicates were identified and removed with Picard tools to mitigate amplification bias. Before differential expression an alysis, the gene count matrix was filtered to retain only genes with a count-per-million (CPM) > 1 in at least three samples (n = 3, representing our smallest experimental group). This rigorous procedure ensured that analysis was perfo rmed on a robust set of reliably expressed gen es. Finally, gene counts were quantified via StringTie and DESeq2 for differential gene expression analysis. Volcano

[3] = CAIA + P2-1, joint tissue Day 10, individual values, P = 0.00077753

For `CCCC[C@H](NC(=O)[C@H](Cc1c[nH]cn1)NC(=O)[C@@H](NC(=O)[C@H](CCCCN)NC(=O)[C@@H](N)[C@@H](C)O)C(C)C)C(=O)N[C@@H](CCCCN)C(=O)N[C@@H](CO)C(=O)N[C@@H](Cc1ccccc1)C(=O)N[C@@H](CC(C)C)C(=O)N[C@@H](C)C(=O)N[C@@H](Cc1ccccc1)C(=O)N[C@@H](CCC(N)=O)C(=O)N[C@H](C(=O)N[C@@H](CCCCN)C(=O)N[C@H](C(=O)O)[C@@H](C)O)[C@@H](C)O` [P2-1] (HELM PEPTIDE1{T.K.V.H.[Nle].K.S.F.L.A.F.Q.T.K.T}$$$$V2.0; N-terminus and C-terminus assumed), the “CAIA-induced pain sensitivity (Von Frey score)” value ([1]; CAIA + P2-1 (Day 10), individual values, P = 0.04443 vs. CAIA + Vehicle) was 0.14 and 0.17 and 1.23 and 0.05 and 0.75 and 0.26 and 0.09 and 0.57 and 0.18 and 0.16 and 0.44 and 0.78, the “pain sensitivity, in words” value ([1]; P2-1 prophylactic) was “significantly reduced CAIA-induced pain sensitivity through partial restoration of mechanical withdrawal thresholds” and the “pain sensitivity, in words” value ([1]; P2-1 therapeutic, Von Frey) was “significantly reduced CAIA-induced pain sensitivity by partially restoring withdrawal thresholds to mechanical stimuli”. The “CAIA-induced pain response (Vor Frey score)” value ([1]; Day 6, individual values) was 0.37 and 0.11 and 0.21 and 0.16 and 1.19, the “CAIA-induced pain response (Vor Frey score)” value ([1]; Day 10, individual values, P = 0.04443 vs. CAIA + Vehicle) was 0.57 and 0.31 and 0.96 and 0.32 and 0.44 and the VCAM1 ([2]; CAIA + P2-1, joint tissue Day 10, individual values, P = 0.0007706) was 4 and 4.5 and 8.2 and 10.3 and 3.3 and 1.2 and 0.7. For the same compound, the sTNFRI [2, 3] was 23.4 and 20.4 and 17.4 and 17 and 24.9 and 22.3 and 40 and 36.8, the sTNFRII [2, 3] was 12.4 and 11.7 and 6.5 and 5.7 and 3.2 and 2.8 and 5.8 and 5.9 and the MIP-1gamma ([2]; CAIA + P2-1, joint tissue Day 10, individual values, P = 0.00163) was 39.6 and 44.2 and 29 and 33.7 and 41.8 and 44.8 and 49.9 and 50.4. For the same compound, the MIP2 ([2]; CAIA + P2-1, joint tissue Day 10, individual values, P = 0.02067) was 2.5 and 2.7 and 4.3 and 4.8 and 5.9 and 7.2 and 5.1 and 5.2, the P-selectin ([2]; CAIA + P2-1, joint tissue Day 10, individual values, P = 0.04584) was 3.6 and 4 and 3.4 and 5.3 and 5.6 and 7.5 and 8 and the “joint inflammation, in words” value ([2]; P2-1 prophylactic) was “significantly reducing joint levels of sTNFRI and sTNFRII, the chemokine MIP-1γ/CCL9, and VCAM-1”. The “joint tissue inflammation, in words” value ([2]; P2-1 therapeutic, sTNFRI, sTNFRII, MIP-1γ/CCL9, VCAM-1, Day 10) was “significantly reduced CAIA-induced joint tissue inflammation”, the “Ctsl mRNA upregulation” value (human PBMCs; HMGB1 + P2-1 5.0 µg/ml, human PBMCs) was 2.4 ± 0.1 -fold and the “HMGB1-induced transcriptional changes, in words” value (human PBMCs; HMGB1 with P2-1, human PBMCs) was “did not broadly reverse HMGB1-induced transcriptional changes in most genes”.
